This assay concerns the target full-length human LSD1 (Homo sapiens (Human), UniProt O60341). Briefly: In vitro enzyme inhibition assay LSD-1 (TR-FRET). The assay is classed as biochemical. To be noted: H3K4me1-biotin peptide. As to the method:
This assay determines the ability of a test compound to inhibit LSD1 demethylase activity.
The enzymatic assay of LSD1 activity is based on Time Resolved-Fluorescence Resonance Energy Transfer (TR-FRET) detection.
The ability of the compounds disclosed herein to inhibit LSD1 activity was quantified and the respective IC50 value was determined.
For orientation: IC50 means the point on the concentration scale where inhibition reaches its midpoint. A lower IC50 goes with higher potency. `N#Cc1ccc(-c2cc(=O)n(CC3CC3)c(N3CCC(N)CC3)n2)cc1F` [Example 109, 4-[2-(4-amino-piperidin-1-yl)-1-cyclopropylmethyl-6-oxo-1,6-dihydro-pyrimidin-4-yl]-2-fluoro-benzonitrile] registered an IC50 of 100 to 1000 nM. As to `C#Cc1c(-c2ccc(C#N)c(F)c2)nc(N2CCC(N)CC2)n(C)c1=O` [Example 110], the IC50 is < 100 nM. The compound `COc1ccc(-c2c(-c3ccc(Cl)c(F)c3)nc(N3CCC(N)CC3)n(C)c2=O)cc1` [Example 111, 2-(4-amino-piperidin-1-yl)-6-(4-chloro-3-fluoro-phenyl)-5-(4-methoxy-phenyl)-3-methyl-3H-pyrimidin-4-one] had an IC50 of 100 to 1000 nM.

As for `Cn1c(N2CCC(N)CC2)nc(-c2ccc(F)cc2)c(-c2ccc3c(ccn3C)c2)c1=O` [Example 113, 2-(4-amino-piperidin-1-yl)-6-(4-fluoro-phenyl)-3-methyl-5-(1-methyl-1H-indol-5-yl)-3H-pyrimidin-4-one], the 50% inhibitory concentration (IC50) was 100 to 1000 nM.

In the case of `Cn1c(N2CCC(N)CC2)nc(-c2ccccc2)c(-c2ccc3c(ccn3C)c2)c1=O` [Example 114, 2-(4-amino-piperidin-1-yl)-3-methyl-5-(1-methyl-1H-indol-5-yl)-6-phenyl-3H-pyrimidin-4-one], the IC50 is > 10000 nM.

With `Cn1c(N2CCC(N)CC2)nc(-c2ccncc2)c(-c2ccc3c(ccn3C)c2)c1=O` [Example 116, 2-(4-amino-piperidin-1-yl)-3-methyl-5-(1-methyl-1H-indol-5-yl)-6-pyridin-4-yl-3H-pyrimidin-4-one], the IC50 was 100 to 1000 nM.

As to `COc1ccc(-c2c(-c3cccc(C#N)c3)nc(N3CCC(N)CC3)n(C)c2=O)cc1F` [Example 118, 3-[2-(4-aminopiperidin-1-yl)-5-(3-fluoro-4-methoxyphenyl)-1-methyl-6-oxopyrimidin-4-yl]benzonitrile], the 50% inhibitory concentration (IC50) was > 10000 nM. Take `COc1ccc(-c2c(-c3ccccc3C#N)nc(N3CCC(N)CC3)n(C)c2=O)cc1F` [Example 119, 2-[2-(4-aminopiperidin-1-yl)-5-(3-fluoro-4-methoxyphenyl)-1-methyl-6-oxopyrimidin-4-yl]benzonitrile]: the 50% inhibitory concentration (IC50) was > 10000 nM.

Consider `Cn1c(N2CCC(N)CC2)nc(-c2ccc(C#N)c(F)c2)c(C#N)c1=O` [Example 121, 2-(4-amino-piperidin-1-yl)-4-(4-cyano-3-fluoro-phenyl)-1-methyl-6-oxo-1,6-dihydro-pyrimidine-5-carbonitrile], for which the IC50 lay within 100 to 1000 nM.

For the compound `COc1ccc(-c2c(-c3ccc(C#N)c(F)c3)nc(N3CCC(N)CC3)[nH]c2=O)cc1` [Example 122, 4-[2-(4-amino-piperidin-1-yl)-5-(4-methoxy-phenyl)-6-oxo-1,6-dihydro-pyrimidin-4-yl]-2-fluoro-benzonitrile], the IC50 is < 100 nM.

The record behind these values is US9573930B2 (Quanticel Pharmaceuticals, Inc., priority 2014, dated 2017).
